Here are results for one compound from publication PMC12641067 (Clinical Pharmacology and Therapeutics, 2025).

The nature of data set [1]: Population PK model of rifampicin (plasma data). The format is in vivo, human. Conditions: population estimate (RSE%). How it is done:
Individual plasma and urine data of GCDCA‐S in healthy subjects were obtained from three clinical studies. Tatosian et al.[18] (study #1) consisted of two occasions: on both occasions, a microdose probe drug cocktail for multiple clinically relevant transporters was administered, with a single oral dose of 600 mg rifampicin co‐administered on the second occasion (n = 6; 3 males, 3 females). Willemin et al.[22] (study #2) was a two‐phase, cross‐over study with a 21‐day washout period between the two phases. […] Study #3 consists of unpublished data from the same study design as reported by Willemin et al. (n = 12; 12 males).[22]
Models were evaluated using visual predictive check (VPC) plots, goodness‐of‐fit (GOF) plots, parameter uncertainty, and changes in objective function. Model visualization and simulations were conducted in MATLAB 2024a (MathWorks, Natick, MA, USA) and Graph Pad Prism 10.2.2 (GraphPad software, La Jolla, CA, USA).
The structural model for rifampicin was based on our previous report,[33] and represents a one‐compartment model with zero‐order absorption and linear elimination.
The models for rifampicin, probenecid, and GCDCA‐S incorporated both inter‐individual variability for a number of model parameters (assuming log‐normal distribution) and residual unexplained variability (using a combination of proportional and additive error models).

The subject of data set [2] is OATP1B1. Details: method as in ref 18 (a number printed in a supplementary file, which may have a reference list of its own: not looked up in the article's list). As to conditions: HEK293, read-out: In vitro OATP1B1 IC50, cited from earlier work.
The target in data set [3] is T1, OATP1B3 (Homo sapiens, UniProt Q9NPD5).
T1 sequence (Q9NPD5 1-702): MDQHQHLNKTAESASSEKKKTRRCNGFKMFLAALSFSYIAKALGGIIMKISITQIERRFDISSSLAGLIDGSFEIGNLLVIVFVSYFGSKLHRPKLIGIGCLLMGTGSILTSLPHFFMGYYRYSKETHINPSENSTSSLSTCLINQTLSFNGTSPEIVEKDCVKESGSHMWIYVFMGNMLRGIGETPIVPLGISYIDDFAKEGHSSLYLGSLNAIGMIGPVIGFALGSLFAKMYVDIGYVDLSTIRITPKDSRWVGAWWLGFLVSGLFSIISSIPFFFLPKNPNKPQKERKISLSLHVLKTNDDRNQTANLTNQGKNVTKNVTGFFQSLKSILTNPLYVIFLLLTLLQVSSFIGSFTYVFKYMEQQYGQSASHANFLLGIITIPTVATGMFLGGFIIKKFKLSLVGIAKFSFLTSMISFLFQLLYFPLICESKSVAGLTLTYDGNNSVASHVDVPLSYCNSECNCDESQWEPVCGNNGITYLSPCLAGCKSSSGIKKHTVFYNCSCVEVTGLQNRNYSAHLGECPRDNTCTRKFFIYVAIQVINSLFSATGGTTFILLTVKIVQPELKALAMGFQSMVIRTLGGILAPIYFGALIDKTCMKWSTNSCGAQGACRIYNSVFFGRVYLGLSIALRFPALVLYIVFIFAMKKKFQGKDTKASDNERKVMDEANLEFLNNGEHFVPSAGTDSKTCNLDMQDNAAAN
Details: method as in ref 18 (a number printed in a supplementary file, which may have a reference list of its own: not looked up in the article's list). Conditions: HEK293, read-out: In vitro OATP1B3 IC50, cited from earlier work.

The test system of data set [4] is OATP1B. As to conditions: substrate CP-I, 600 mg, read-out: In vivo OATP1B Ki,u, cited from earlier work.
For data set [5], the system named is OATP1B1. Details: method as in ref 22 (a number printed in a supplementary file, which may have a reference list of its own: not looked up in the article's list). Conditions: substrate CP-I, 150 – 600 mg, read-out: In vivo OATP1B Ki,u; cited from earlier work.
Data set [6] addresses T1, OATP1B3. As to the kind of experiment: In vivo OATP1B3 inhibition estimated by POP-PK modeling of GCDCA-S data. Details: hepatic OATP1B3 and renal OAT3 transporters; from tissue; host or cells: liver (hepatocytes) of healthy human subjects, in vivo. Conditions: GCDCA-S as substrate, rifampicin 600 mg, population estimate (RSE%), read-out: K i,unbound,OATP1B3.

Read-outs that look alike come from different tables or passages of the source.

In general, IC50 refers to the concentration needed to halve the response being measured. Take `CO[C@H]1/C=C/O[C@@]2(C)Oc3c(C)c(O)c4c(O)c(c(/C=N/N5CCN(C)CC5)c(O)c4c3C2=O)NC(=O)/C(C)=C\C=C\[C@H](C)[C@H](O)[C@@H](C)[C@@H](O)[C@@H](C)[C@H](OC(C)=O)[C@@H]1C` [RIF, rifampicin]: the clearance in data set [1] (both sexes, human, plasma, oral, 600 mg, read-out: CL RIF (converted)) is 112 mL/min. Moreover, the “Tk0 RIF” value in data set [1] (duration of zero-order absorption) is on record as 0.84 (41) h. Moreover, the “V RIF” value in data set [1] was 35 (5) L. The “Tlag RIF” value in data set [1] (single oral dose 600 mg) is given as 0.56 (20) h. Moreover, the IC50 is 0.61 µM in data set [2] (substrate CP-I), 0.17 µM in data set [2] (substrate GCDCA-S), 0.57 µM in data set [3] (substrate CP-I) and 0.28 µM in data set [3] (substrate GCDCA-S). For the same compound, the Ki in data set [4] (ref 8) is 0.13 µM; in data set [4] (ref 19), 0.02 µM; in data set [4] (ref 21) it was 0.1 µM; in data set [4] (ref 23) it was 0.038 µM; in data set [4] (ref 24), 0.053 µM; in data set [5], 0.14 µM. In data set [6], the Ki is 0.009 µM.
